The source made the active and inactive calls. The rule behind the calls is not given here.
target: T1, 2-5A-dependent ribonuclease (Homo sapiens) (UniProt Q05823); assay: Antagonist activity at human RNase L expressed in Escherichia coli BL21 (DE3) cells assessed as RNA cleavage using Cy5-C11-rUU-C7-BHQ2 as substrate by FRET assay in presence of natural activator pAAAA; format: functional
T1 sequence (whole entry): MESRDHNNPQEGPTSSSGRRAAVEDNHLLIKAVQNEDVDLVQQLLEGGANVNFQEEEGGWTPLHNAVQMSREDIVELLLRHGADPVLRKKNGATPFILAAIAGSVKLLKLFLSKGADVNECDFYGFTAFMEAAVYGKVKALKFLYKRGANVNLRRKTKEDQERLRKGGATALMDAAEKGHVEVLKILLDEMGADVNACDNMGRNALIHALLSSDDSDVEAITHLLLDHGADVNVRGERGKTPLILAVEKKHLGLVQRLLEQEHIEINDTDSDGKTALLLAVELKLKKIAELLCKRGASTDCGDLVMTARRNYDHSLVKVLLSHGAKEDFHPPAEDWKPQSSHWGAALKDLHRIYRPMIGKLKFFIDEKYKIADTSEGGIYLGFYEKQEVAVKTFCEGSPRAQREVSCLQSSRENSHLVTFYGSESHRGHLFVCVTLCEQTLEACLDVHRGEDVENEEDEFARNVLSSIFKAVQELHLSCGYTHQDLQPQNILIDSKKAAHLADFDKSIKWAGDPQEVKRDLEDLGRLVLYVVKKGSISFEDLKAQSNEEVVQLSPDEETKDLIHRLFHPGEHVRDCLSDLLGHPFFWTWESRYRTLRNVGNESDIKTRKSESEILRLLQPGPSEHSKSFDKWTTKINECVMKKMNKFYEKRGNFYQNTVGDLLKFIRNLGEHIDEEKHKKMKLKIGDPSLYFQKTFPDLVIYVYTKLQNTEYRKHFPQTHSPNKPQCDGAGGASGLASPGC

Row | inhibition | SMILES
1 | inactive | Nc1ncnc2c1ncn2[C@@H]1O[C@H](COCP(=O)(O)O[C@@H]2[C@H](O)[C@@H](COP(=O)(O)O[C@@H]3[C@H](O)[C@@H](COP(=O)(O)O[C@H]4[C@H](O)[C@@H](COCP(=O)(O)O)O[C@H]4n4cnc5c(N)ncnc54)O[C@H]3n3cnc4c(N)ncnc43)O[C@H]2n2cnc3c(N)ncnc32)[C@@H](O)[C@@H]1O
2 | inactive | Nc1ncnc2c1ncn2[C@@H]1O[C@H](COCP(=O)(O)O[C@@H]2[C@H](O)[C@@H](COP(=O)(O)O[C@@H]3[C@H](O)[C@@H](COP(=O)(O)O[C@@H]4[C@@H](O)[C@@H](COCP(=O)(O)O)O[C@H]4n4cnc5c(N)ncnc54)O[C@H]3n3cnc4c(N)ncnc43)O[C@H]2n2cnc3c(N)ncnc32)[C@H](O)[C@H]1O
3 | inactive | Nc1ncnc2c1ncn2[C@@H]1O[C@H](COP(=O)(O)CO[C@H]2[C@H](O)[C@@H](COP(=O)(O)CO[C@H]3[C@H](O)[C@@H](COP(=O)(O)O[C@@H]4[C@H](O)[C@@H](COP(=O)(O)O)O[C@H]4n4cnc5c(N)ncnc54)O[C@H]3n3cnc4c(N)ncnc43)O[C@H]2n2cnc3c(N)ncnc32)[C@@H](O)[C@H]1O
4 | inactive | Nc1ncnc2c1ncn2[C@@H]1O[C@H](COCP(=O)(O)O[C@@H]2[C@H](O)[C@@H](COP(=O)(O)O[C@@H]3[C@@H](O)[C@@H](COCP(=O)(O)O[C@@H]4[C@@H](O)[C@@H](COCP(=O)(O)O)O[C@H]4n4cnc5c(N)ncnc54)O[C@H]3n3cnc4c(N)ncnc43)O[C@H]2n2cnc3c(N)ncnc32)[C@H](O)[C@H]1O
5 | inactive | Nc1ncnc2c1ncn2[C@@H]1O[C@H](COCP(=O)(O)O[C@@H]2[C@H](O)[C@@H](COCP(=O)(O)O[C@@H]3[C@H](O)[C@@H](COP(=O)(O)O[C@@H]4[C@H](O)[C@@H](COCP(=O)(O)O)O[C@H]4n4cnc5c(N)ncnc54)O[C@H]3n3cnc4c(N)ncnc43)O[C@H]2n2cnc3c(N)ncnc32)[C@@H](O)[C@H]1O
6 | inactive | Nc1ncnc2c1ncn2[C@@H]1O[C@H](COP(=O)(O)O[C@@H]2[C@H](O)[C@@H](COP(=O)(O)CO[C@@H]3[C@H](O)[C@@H](COP(=O)(O)CO[C@@H]4[C@H](O)[C@@H](COP(=O)(O)O)O[C@H]4n4cnc5c(N)ncnc54)O[C@H]3n3cnc4c(N)ncnc43)O[C@H]2n2cnc3c(N)ncnc32)[C@@H](O)[C@H]1O
7 | inactive | Nc1ncnc2c1ncn2[C@@H]1O[C@H](COP(=O)(O)O[C@@H]2[C@H](O)[C@@H](COCP(=O)(O)O[C@@H]3[C@H](O)[C@@H](COCP(=O)(O)O[C@@H]4[C@H](O)[C@@H](COCP(=O)(O)O)O[C@H]4n4cnc5c(N)ncnc54)O[C@H]3n3cnc4c(N)ncnc43)O[C@H]2n2cnc3c(N)ncnc32)[C@@H](O)[C@H]1O
8 | inactive | Nc1ncnc2c1ncn2[C@@H]1O[C@H](COP(=O)(O)O[C@@H]2[C@H](O)[C@@H](COP(=O)(O)O[C@H]3[C@H](O)[C@@H](COCP(=O)(O)O[C@H]4[C@H](O)[C@@H](COCP(=O)(O)O)O[C@H]4n4cnc5c(N)ncnc54)O[C@H]3n3cnc4c(N)ncnc43)O[C@H]2n2cnc3c(N)ncnc32)[C@@H](O)[C@H]1O
9 | inactive | Nc1ncnc2c1ncn2[C@@H]1O[C@H](COP(=O)(O)CO[C@@H]2[C@H](O)[C@@H](COP(=O)(O)O[C@@H]3[C@H](O)[C@@H](COP(=O)(O)CO[C@@H]4[C@H](O)[C@@H](COP(=O)(O)O)O[C@H]4n4cnc5c(N)ncnc54)O[C@H]3n3cnc4c(N)ncnc43)O[C@H]2n2cnc3c(N)ncnc32)[C@@H](O)[C@H]1O
10 | inactive | Nc1ncnc2c1ncn2[C@@H]1O[C@H](COP(=O)(O)O[C@@H]2[C@H](O)[C@@H](COCP(=O)(O)O[C@@H]3[C@H](O)[C@@H](COCP(=O)(O)O[C@@H]4[C@H](O)[C@@H](COP(=O)(O)O)O[C@H]4n4cnc5c(N)ncnc54)O[C@H]3n3cnc4c(N)ncnc43)O[C@H]2n2cnc3c(N)ncnc32)[C@@H](O)[C@H]1O
11 | inactive | Nc1ncnc2c1ncn2[C@@H]1O[C@H](COP(=O)(O)O[C@@H]2[C@H](O)[C@@H](COP(=O)(O)O[C@@H]3[C@@H](O)[C@@H](COCP(=O)(O)O[C@@H]4[C@@H](O)[C@@H](COCP(=O)(O)O)O[C@H]4n4cnc5c(N)ncnc54)O[C@H]3n3cnc4c(N)ncnc43)O[C@H]2n2cnc3c(N)ncnc32)[C@@H](O)[C@H]1O
12 | inactive | Nc1ncnc2c1ncn2[C@@H]1O[C@H](COP(=O)(O)O[C@@H]2[C@H](O)[C@@H](COP(=O)(O)CO[C@@H]3[C@@H](O)[C@@H](COP(=O)(O)CO[C@@H]4[C@@H](O)[C@@H](COP(=O)(O)O)O[C@H]4n4cnc5c(N)ncnc54)O[C@H]3n3cnc4c(N)ncnc43)O[C@H]2n2cnc3c(N)ncnc32)[C@@H](O)[C@H]1O
13 | inactive | Nc1ncnc2c1ncn2[C@@H]1O[C@H](COP(=O)(O)O[C@@H]2[C@H](O)[C@@H](COCP(=O)(O)O[C@@H]3[C@H](O)[C@@H](COP(=O)(O)O[C@@H]4[C@H](O)[C@@H](COCP(=O)(O)O)O[C@H]4n4cnc5c(N)ncnc54)O[C@H]3n3cnc4c(N)ncnc43)O[C@H]2n2cnc3c(N)ncnc32)[C@@H](O)[C@H]1O
14 | inactive | Nc1ncnc2c1ncn2[C@@H]1O[C@H](COP(=O)(O)O[C@H]2[C@H](O)[C@@H](COCP(=O)(O)O[C@H]3[C@H](O)[C@@H](COCP(=O)(O)O[C@H]4[C@H](O)[C@@H](COCP(=O)(O)O)O[C@H]4n4cnc5c(N)ncnc54)O[C@H]3n3cnc4c(N)ncnc43)O[C@H]2n2cnc3c(N)ncnc32)[C@@H](O)[C@H]1O
15 | inactive | Nc1ncnc2c1ncn2[C@@H]1O[C@H](COP(=O)(O)CO[C@@H]2[C@@H](O)[C@@H](COP(=O)(O)CO[C@@H]3[C@@H](O)[C@@H](COP(=O)(O)CO[C@@H]4[C@@H](O)[C@@H](COP(=O)(O)O)O[C@H]4n4cnc5c(N)ncnc54)O[C@H]3n3cnc4c(N)ncnc43)O[C@H]2n2cnc3c(N)ncnc32)[C@@H](O)[C@H]1O
16 | inactive | Nc1ncnc2c1ncn2[C@@H]1O[C@H](COCP(=O)(O)O[C@@H]2[C@@H](O)[C@@H](COCP(=O)(O)O[C@@H]3[C@@H](O)[C@@H](COCP(=O)(O)O[C@@H]4[C@@H](O)[C@@H](COCP(=O)(O)O)O[C@H]4n4cnc5c(N)ncnc54)O[C@H]3n3cnc4c(N)ncnc43)O[C@H]2n2cnc3c(N)ncnc32)[C@H](O)[C@H]1O
17 | inactive | Nc1ncnc2c1ncn2[C@@H]1O[C@H](COCP(=O)(O)O[C@@H]2[C@@H](O)[C@@H](COCP(=O)(O)O[C@@H]3[C@H](O)[C@@H](COP(=O)(O)O[C@@H]4[C@H](O)[C@@H](COP(=O)(O)O)O[C@H]4n4cnc5c(N)ncnc54)O[C@H]3n3cnc4c(N)ncnc43)O[C@H]2n2cnc3c(N)ncnc32)[C@H](O)[C@H]1O
18 | inactive | Nc1ncnc2c1ncn2[C@@H]1O[C@H](COP(=O)(O)CO[C@@H]2[C@H](O)[C@@H](COP(=O)(O)CO[C@@H]3[C@H](O)[C@@H](COP(=O)(O)O[C@@H]4[C@H](O)[C@@H](COP(=O)(O)O)O[C@H]4n4cnc5c(N)ncnc54)O[C@H]3n3cnc4c(N)ncnc43)O[C@H]2n2cnc3c(N)ncnc32)[C@@H](O)[C@H]1O
19 | inactive | Nc1ncnc2c1ncn2[C@@H]1O[C@H](COP(=O)(O)O[C@@H]2[C@H](O)[C@@H](COP(=O)(O)CO[C@H]3[C@H](O)[C@@H](COP(=O)(O)CO[C@H]4[C@H](O)[C@@H](COP(=O)(O)O)O[C@H]4n4cnc5c(N)ncnc54)O[C@H]3n3cnc4c(N)ncnc43)O[C@H]2n2cnc3c(N)ncnc32)[C@@H](O)[C@H]1O

— ChEMBL document CHEMBL2057064, “Activation of human RNase L by 2'- and 5'-O-methylphosphonate-modified oligoadenylates” (Bioorg Med Chem Lett, 2012)
